The target in test [1] is SWI/SNF-related matrix-associated actin-dependent regulator of chromatin subfamily A containing DEAD/H box 1 (Mus musculus) (UniProt Q04692). The test can be described thus: Inhibition of Smarcad1 in mouse C2C12 cells assessed as reduction in phospho-sites occupancy at 4 uM after 5 hrs by SILAC based LC-MS/MS analysis relative to control. It counts as cell-based.
For test [2], the target named is Pleckstrin homology-like domain family B member 1 (Mus musculus) (UniProt Q6PDH0). The test can be described thus: Inhibition of Phldb1 in mouse C2C12 cells assessed as reduction in phospho-sites occupancy at 4 uM after 5 hrs by SILAC based LC-MS/MS analysis relative to control. The class given is cell-based.
Pleckstrin homology-like domain family B member 1 (Mus musculus), sequence (Q6PDH0 whole entry, the tested form may be a part): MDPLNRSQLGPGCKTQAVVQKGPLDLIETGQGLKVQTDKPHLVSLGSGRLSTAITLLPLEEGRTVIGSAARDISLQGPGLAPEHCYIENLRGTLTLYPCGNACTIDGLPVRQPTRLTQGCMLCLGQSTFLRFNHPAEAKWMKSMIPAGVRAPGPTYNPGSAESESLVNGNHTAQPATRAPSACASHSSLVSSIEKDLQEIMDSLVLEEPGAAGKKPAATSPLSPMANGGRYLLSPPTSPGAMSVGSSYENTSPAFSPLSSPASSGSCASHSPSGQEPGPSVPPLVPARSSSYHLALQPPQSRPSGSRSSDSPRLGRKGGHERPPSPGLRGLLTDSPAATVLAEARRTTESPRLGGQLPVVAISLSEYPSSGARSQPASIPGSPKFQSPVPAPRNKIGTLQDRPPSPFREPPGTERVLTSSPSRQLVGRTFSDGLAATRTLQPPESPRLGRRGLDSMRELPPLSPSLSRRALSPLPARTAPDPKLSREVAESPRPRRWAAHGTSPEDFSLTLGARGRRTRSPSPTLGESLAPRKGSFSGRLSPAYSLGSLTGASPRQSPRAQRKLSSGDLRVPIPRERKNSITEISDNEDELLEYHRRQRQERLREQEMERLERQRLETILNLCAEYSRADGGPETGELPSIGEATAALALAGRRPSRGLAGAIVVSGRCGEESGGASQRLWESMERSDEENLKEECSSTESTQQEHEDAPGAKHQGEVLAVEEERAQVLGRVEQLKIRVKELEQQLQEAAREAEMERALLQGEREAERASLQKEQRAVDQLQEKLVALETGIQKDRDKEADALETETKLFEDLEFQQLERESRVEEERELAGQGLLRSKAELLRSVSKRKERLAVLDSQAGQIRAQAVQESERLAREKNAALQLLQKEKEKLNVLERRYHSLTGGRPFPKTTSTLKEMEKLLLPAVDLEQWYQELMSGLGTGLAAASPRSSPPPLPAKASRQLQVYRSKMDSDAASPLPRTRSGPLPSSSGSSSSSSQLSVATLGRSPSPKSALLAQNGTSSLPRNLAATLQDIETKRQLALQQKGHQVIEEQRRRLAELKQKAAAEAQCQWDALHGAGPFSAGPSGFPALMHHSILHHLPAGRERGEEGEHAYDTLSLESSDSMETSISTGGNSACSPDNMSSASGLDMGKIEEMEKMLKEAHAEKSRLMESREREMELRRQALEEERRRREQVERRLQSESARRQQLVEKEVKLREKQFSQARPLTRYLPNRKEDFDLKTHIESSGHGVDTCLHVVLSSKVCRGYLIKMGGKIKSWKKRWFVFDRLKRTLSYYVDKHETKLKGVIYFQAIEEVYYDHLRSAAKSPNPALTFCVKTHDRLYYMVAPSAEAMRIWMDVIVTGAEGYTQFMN
In test [3] the target is Host cell factor 1 (Mus musculus) (UniProt Q61191). The test can be described thus: Inhibition of host cell factor 1 in mouse C2C12 cells assessed as reduction in phospho-sites occupancy at 4 uM after 5 hrs by SILAC based LC-MS/MS analysis relative to control.
Test [4] has as its target DNA polymerase delta subunit 3 (Mus musculus) (UniProt Q9EQ28). The test can be described thus: Inhibition of Pold3 in mouse C2C12 cells assessed as reduction in phospho-sites occupancy at 4 uM after 5 hrs by SILAC based LC-MS/MS analysis relative to control. The class given is cell-based.
For test [5], the target named is Charged multivesicular body protein 3 (Mus musculus) (UniProt Q9CQ10). Nature of the test: Inhibition of Chmp3 in mouse C2C12 cells assessed as reduction in phospho-sites occupancy at 4 uM after 5 hrs by SILAC based LC-MS/MS analysis relative to control. The class given is cell-based.
Test [6] has as its target Kinectin (Mus musculus) (UniProt Q61595). The test can be described thus: Inhibition of Ktn1 in mouse C2C12 cells assessed as reduction in phospho-sites occupancy at 4 uM after 5 hrs by SILAC based LC-MS/MS analysis relative to control. The class given is cell-based.
Test [7] deals with Lamina-associated polypeptide 2, isoforms beta/delta/epsilon/gamma (Mus musculus) (UniProt Q61029). The test can be described thus: Inhibition of LAP2B epsilon in mouse C2C12 cells assessed as reduction in phospho-sites occupancy at 4 uM after 5 hrs by SILAC based LC-MS/MS analysis relative to control. It counts as cell-based.
Lamina-associated polypeptide 2, isoforms beta/delta/epsilon/gamma (Mus musculus), sequence (Q61029 whole entry, the tested form may be a part, canonical isoform): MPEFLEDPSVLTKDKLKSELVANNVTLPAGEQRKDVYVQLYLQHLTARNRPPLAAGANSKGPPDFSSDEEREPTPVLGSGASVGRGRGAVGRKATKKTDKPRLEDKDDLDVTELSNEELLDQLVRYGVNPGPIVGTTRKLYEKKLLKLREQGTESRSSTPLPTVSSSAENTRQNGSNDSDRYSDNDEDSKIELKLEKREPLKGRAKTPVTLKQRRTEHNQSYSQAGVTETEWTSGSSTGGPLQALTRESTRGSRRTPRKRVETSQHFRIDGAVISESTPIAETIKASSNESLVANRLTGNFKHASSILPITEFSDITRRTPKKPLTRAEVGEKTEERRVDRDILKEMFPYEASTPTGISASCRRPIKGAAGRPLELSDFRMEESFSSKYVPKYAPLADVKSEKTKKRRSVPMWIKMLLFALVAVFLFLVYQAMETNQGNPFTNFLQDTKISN
Test [8] has as its target Coiled-coil domain-containing protein 43 (Mus musculus) (UniProt Q9CR29). The test can be described thus: Inhibition of Ccdc43 in mouse C2C12 cells assessed as reduction in phospho-sites occupancy at 4 uM after 5 hrs by SILAC based LC-MS/MS analysis relative to control. It counts as cell-based.
In test [9] the target is 182 kDa tankyrase-1-binding protein (Mus musculus) (UniProt P58871). Nature of the test: Inhibition of tankyrase-1-binding protein in mouse C2C12 cells assessed as reduction in phospho-sites occupancy at 4 uM after 5 hrs by SILAC based LC-MS/MS analysis relative to control. It counts as cell-based.
182 kDa tankyrase-1-binding protein (Mus musculus), sequence (P58871 whole entry): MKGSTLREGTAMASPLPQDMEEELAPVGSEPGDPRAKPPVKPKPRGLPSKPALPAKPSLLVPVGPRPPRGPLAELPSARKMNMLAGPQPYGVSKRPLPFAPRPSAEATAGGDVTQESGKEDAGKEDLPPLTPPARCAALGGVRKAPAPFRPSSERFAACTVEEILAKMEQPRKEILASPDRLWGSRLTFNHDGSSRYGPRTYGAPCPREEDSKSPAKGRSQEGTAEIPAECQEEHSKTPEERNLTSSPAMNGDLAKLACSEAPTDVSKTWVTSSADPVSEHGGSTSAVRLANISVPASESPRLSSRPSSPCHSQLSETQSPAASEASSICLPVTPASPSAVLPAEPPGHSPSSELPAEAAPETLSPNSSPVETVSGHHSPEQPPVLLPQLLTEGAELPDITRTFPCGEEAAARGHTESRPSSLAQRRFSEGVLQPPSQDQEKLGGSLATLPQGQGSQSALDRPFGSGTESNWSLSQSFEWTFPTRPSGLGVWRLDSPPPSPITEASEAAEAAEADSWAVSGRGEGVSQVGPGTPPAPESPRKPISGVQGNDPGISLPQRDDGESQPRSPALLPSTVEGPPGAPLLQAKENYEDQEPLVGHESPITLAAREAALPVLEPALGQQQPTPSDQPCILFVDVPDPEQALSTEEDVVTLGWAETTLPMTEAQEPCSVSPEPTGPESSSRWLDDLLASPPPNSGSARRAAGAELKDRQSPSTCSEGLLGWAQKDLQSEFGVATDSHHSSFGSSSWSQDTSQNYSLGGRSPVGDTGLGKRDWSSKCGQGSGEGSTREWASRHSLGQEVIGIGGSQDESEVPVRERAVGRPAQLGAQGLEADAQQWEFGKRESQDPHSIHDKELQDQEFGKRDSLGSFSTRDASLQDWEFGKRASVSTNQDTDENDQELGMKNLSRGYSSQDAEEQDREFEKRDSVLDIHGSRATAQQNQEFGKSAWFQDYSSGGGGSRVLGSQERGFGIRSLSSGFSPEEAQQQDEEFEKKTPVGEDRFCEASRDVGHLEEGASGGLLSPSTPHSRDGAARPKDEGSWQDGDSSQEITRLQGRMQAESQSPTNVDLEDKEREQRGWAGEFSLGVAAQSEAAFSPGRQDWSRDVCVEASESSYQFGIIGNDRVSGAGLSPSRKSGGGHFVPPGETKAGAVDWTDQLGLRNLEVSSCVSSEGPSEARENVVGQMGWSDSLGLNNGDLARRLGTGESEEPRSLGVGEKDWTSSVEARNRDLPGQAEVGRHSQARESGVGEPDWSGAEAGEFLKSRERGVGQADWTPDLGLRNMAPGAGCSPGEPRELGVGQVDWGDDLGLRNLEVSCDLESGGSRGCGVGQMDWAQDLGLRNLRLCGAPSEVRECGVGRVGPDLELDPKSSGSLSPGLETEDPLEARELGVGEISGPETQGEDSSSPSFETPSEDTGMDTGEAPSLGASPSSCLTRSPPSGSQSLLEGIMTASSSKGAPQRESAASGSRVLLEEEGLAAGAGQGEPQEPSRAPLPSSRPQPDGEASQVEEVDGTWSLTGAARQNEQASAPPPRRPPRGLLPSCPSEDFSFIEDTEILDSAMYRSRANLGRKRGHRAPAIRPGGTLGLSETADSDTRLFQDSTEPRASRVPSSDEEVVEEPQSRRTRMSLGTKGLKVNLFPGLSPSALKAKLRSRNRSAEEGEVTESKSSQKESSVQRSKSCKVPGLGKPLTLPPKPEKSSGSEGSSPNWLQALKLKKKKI

The text below walks through data of ChEMBL document CHEMBL4813950, “Comparing the efficacy and selectivity of Ck2 inhibitors. A phosphoproteomics approach” (Eur J Med Chem, 2021).

The structures appear in SMILES notation.

Kinectin (Mus musculus), sequence (Q61595 whole entry, canonical isoform): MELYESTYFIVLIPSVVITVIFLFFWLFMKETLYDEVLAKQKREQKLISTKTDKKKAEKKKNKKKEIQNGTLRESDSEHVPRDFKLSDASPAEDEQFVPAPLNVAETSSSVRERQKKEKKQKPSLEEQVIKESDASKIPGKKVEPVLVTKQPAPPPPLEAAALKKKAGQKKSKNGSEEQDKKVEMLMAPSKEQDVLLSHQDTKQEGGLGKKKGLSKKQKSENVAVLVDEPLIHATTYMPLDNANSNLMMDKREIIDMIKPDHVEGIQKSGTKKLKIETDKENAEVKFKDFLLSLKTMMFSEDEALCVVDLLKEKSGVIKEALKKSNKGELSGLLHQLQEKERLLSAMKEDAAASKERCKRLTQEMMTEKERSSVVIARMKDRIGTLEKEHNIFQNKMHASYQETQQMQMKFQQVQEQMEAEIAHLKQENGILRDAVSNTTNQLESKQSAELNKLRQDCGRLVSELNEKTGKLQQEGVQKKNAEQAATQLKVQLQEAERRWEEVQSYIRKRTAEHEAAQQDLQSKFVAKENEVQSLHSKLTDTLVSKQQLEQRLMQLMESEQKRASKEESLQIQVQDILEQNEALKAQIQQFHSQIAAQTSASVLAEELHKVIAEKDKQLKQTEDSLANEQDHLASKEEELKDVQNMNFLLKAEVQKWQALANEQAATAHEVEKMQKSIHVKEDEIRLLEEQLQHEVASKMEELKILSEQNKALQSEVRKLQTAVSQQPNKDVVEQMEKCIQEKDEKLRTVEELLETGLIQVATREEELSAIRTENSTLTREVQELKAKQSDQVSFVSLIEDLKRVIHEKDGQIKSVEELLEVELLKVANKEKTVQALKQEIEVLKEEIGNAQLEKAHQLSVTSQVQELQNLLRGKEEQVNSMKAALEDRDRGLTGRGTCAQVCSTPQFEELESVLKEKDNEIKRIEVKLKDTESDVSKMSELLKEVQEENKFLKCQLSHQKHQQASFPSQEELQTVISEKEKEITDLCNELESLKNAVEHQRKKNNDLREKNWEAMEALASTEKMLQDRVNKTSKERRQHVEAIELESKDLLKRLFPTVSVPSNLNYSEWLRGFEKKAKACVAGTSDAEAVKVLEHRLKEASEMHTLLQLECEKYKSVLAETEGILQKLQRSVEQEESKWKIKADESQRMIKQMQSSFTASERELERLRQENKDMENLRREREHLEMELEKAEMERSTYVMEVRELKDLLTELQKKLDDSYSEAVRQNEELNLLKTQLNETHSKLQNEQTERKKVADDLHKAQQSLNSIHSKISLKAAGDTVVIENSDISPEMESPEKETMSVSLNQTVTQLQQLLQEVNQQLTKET
Coiled-coil domain-containing protein 43 (Mus musculus), sequence (Q9CR29 whole entry, the tested form may be a part): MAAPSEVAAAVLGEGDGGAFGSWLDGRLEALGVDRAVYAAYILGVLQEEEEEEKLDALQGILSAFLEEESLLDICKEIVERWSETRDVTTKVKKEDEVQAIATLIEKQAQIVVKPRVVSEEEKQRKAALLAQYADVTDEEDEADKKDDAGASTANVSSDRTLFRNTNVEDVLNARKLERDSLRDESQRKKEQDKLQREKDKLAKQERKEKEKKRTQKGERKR

`COc1cc(/C=N/n2c(SC)nnc2-c2ccccc2)c(Br)cc1O`: the fold change (FC) was determined as 1.64 in test [1]; 3.3 in [2]; 1.56 in test [3]; 1.66 in test [4]; 3.19 in test [5]; 1.98 in [6]. Also, the fold change (FC) was found to be 3.86 in [7], 2.68 in test [8] and 3.06 in test [9].
